Columns and labels:
Format in all cases: in vivo
[1] = Sensory evaluation, intensity of umami in aqueous MSG solution; settings: 10 ppm added to 0.2% MSG; additive-free = 3.0; 1.0 much weaker to 5.0 much stronger; mean of three individuals, nose clip
Experimental: (§1) All sensory evaluation of taste was performed by individuals wearing a nose clip. The evaluation was performed by groups of three individuals, and the scores were averaged.
(§2) To a 0.2% aqueous sodium glutamate (MSG) solution (=umami), a 0.8% aqueous salt (NaCl) solution (=saltiness) and a 2% aqueous sucrose solution (=sweetness) were added 10 ppm linear aliphatic aldehydes having 3-12 carbon atoms shown in Table 1, respectively. Sensory evaluation was performed in which intensity of taste sensed when each of the aqueous solutions is introduced into the mouth is defined as “Intensity of umami” for the aqueous MSG solution, “Intensity of saltiness” for the aqueous NaCl solution and “Intensity of sweetness” for the aqueous sucrose solution. The score of aldehyde-free taste intensity was set to 3.0, and taste intensity upon addition of aldehyde was evaluated as follows. The results are shown in Table 1. • 1.0: Much weaker • 2.0: Weaker • 3.0: Similar • 4.0: Stronger • 5.0: Much Stronger
(§3) To a 0.2% aqueous sodium glutamate (MSG) solution (=umami), a 0.8% aqueous salt (NaCl) solution (=saltiness), a 2% aqueous sucrose solution (=sweetness) were added 10 ppm linear aliphatic alcohols having 2-11 carbon atoms, respectively. Sensory evaluation was performed in which intensity of taste sensed when each of the aqueous solutions is introduced into the mouth is defined as “Intensity of umami” for the aqueous MSG solution, “Intensity of saltiness” for the aqueous NaCl solution and “Intensity of sweetness” for the aqueous sucrose solution. The score of alcohol-free taste intensity was set to 3.0, and taste intensity upon addition was evaluated as follows. The results are shown in Table 3. • 1.0: Much weaker • 2.0: Weaker • 3.0: Similar • 4.0: Stronger • 5.0: Much stronger
(§4) To a 0.2% aqueous sodium glutamate (MSG) solution (=umami), a 0.8% aqueous salt (NaCl) solution (=saltiness), a 2% aqueous sucrose solution (=sweetness) were added 1 ppm n-hexanal and 1ppm 1-octene-3-ol each, respectively. Sensory evaluation was performed in which the intensity of taste sensed when each of the aqueous solutions is introduced into the mouth is defined as “Intensity of umami” for the aqueous MSG solution, “Intensity of saltiness” for the aqueous NaCl solution and “Intensity of sweetness” for the aqueous sucrose solution. The score of additive-free taste intensity was set to 3.0, and taste intensity upon addition was evaluated as follows. The results are shown in Table 9. • 1.0: Much weaker • 2.0: Weaker • 3.0: Similar • 4.0: Stronger • 5.0: Much stronger

[2] = Sensory evaluation, intensity of saltiness in aqueous NaCl solution; settings: 10 ppm added to 0.8% NaCl; additive-free = 3.0; 1.0 much weaker to 5.0 much stronger
Experimental: as §1, §2, §3, §4

[3] = Sensory evaluation, intensity of sweetness in aqueous sucrose solution; settings: 10 ppm added to 2% sucrose; additive-free = 3.0; 1.0 much weaker to 5.0 much stronger
Experimental: as §1, §2, §3, §4

[4] = Sensory evaluation, intensity of umami in diluted soy sauce; settings: 10 ppm in soy sauce diluted to 2% in water; aldehyde-free = 3.0; scale 1.0-5.0
Experimental: as §1
(§5) Sensory evaluation was performed for “Intensity of Umani ” and “ Intensity of Saltiness “. The score of aldehyde-free taste intensity was set to 3.0, and taste intensity upon addition was evaluated as follows. The results are shown in Table 7. • 1.0: Much weaker • 2.0: Weaker • 3.0: Similar • 4.0: Stronger • 5.0: Much stronger

[5] = Sensory evaluation, intensity of saltiness in diluted soy sauce; settings: 10 ppm in soy sauce diluted to 2% in water; aldehyde-free = 3.0; scale 1.0-5.0
Experimental: as §1, §5

[6] = Sensory evaluation, intensity of sweetness in whipped cream; settings: 100 ppm in whipped cream; aldehyde-free = 3.0; scale 1.0-5.0
Experimental: as §1
Sensory evaluation was performed for “Intensity of sweetness”. The score of aldehyde-free taste intensity was set to 3.0, and taste intensity upon addition was evaluated as follows. The results are shown in Table 8. • 1.0: Much weaker • 2.0: Weaker • 3.0: Similar • 4.0: Stronger • 5.0: Much stronger

[7] = Sensory evaluation whether salt usage can be reduced; settings: nothing added, for comparison, 0.5% NaCl solution = 3.0
Experimental: as §1
Evaluation was conducted to find whether salt usage can be reduced by the taste enhancing effects. To a 0.5% aqueous NaCl solution was added 10 ppm n-hexanal or 10 ppm 1-octen-3-ol. Taste intensity was determined in the sensory evaluation where the taste intensity of the 0.5% NaCl solution was set to 3.0. For comparison, sensory evaluation was also performed for a 0.8% and 0.6% concentration of aqueous NaCl solution. The sensory evaluation was evaluated as follows. The results are shown in Table 5. • 1.0: Much weaker • 2.0: Weaker • 3.0: Similar • 4.0: Stronger • 5.0: Much stronger

[8] = Sensory evaluation whether sucrose usage can be reduced; settings: nothing added, for comparison, 1.5% sucrose solution = 3.0
Experimental: as §1
Evaluation was conducted to find whether sucrose usage can be reduced by the taste enhancing effects. To a 1.5% aqueous sucrose solution was added 10 ppm n-hexanal or 10 ppm 1-octen-3-ol. Taste intensity was determined in the sensory evaluation where the taste intensity of the 1.5% sucrose solution was set to 3.0. For comparison, sensory evaluation was also performed for a 2.0% and 1.8% concentration of aqueous sucrose solution. The sensory evaluation was evaluated as follows. The results are shown in Table 6. • 1.0: Much weaker • 2.0: Weaker • 3.0: Similar • 4.0: Stronger • 5.0: Much stronger

[9] = Sensory evaluation, intensity of umami in aqueous MSG solution; settings: 10 ppm added to 0.2% MSG; additive-free = 3.0; 1.0 much weaker to 5.0 much stronger; mean of three individuals, nose clip; remark: listed apart in the source
[10] = Sensory evaluation, intensity of saltiness in aqueous NaCl solution; settings: 10 ppm added to 0.8% NaCl; additive-free = 3.0; 1.0 much weaker to 5.0 much stronger; remark: listed apart in the source
[11] = Sensory evaluation, intensity of sweetness in aqueous sucrose solution; settings: 10 ppm added to 2% sucrose; additive-free = 3.0; 1.0 much weaker to 5.0 much stronger; remark: listed apart in the source

| SMILES | Intensity of umami, Aqueous MSG solution [1] | Intensity of saltiness, Aqueous NaCl solution [2] | Intensity of sweetness, Aqueous sucrose solution [3] | also measured |
| --- | --- | --- | --- | --- |
| CCCCC=O [n-pentanal] | 4.5 | 4.5 | 4.0 | Intensity of umami [4]: 4.2; Intensity of saltiness [5]: 4.2; Intensity of sweetness [6]: 4.2 |
| CCCCCO [Example 1-pentanol, 1-pentanol] | 3.2 | 3.2 | 3.2 |  |
| CCCCCCCC=O [n-octanal] | 3.8 | 3.8 | 3.5 | Intensity of umami [4]: 3.5; Intensity of saltiness [5]: 3.5; Intensity of sweetness [6]: 3.5 |
| CCCCCCCCCCCO [Example 1-undecanol, 1-undecanol, reference compound] | 3.0 | 3.0 | 3.0 |  |
| CCCCCCCO [Example 1-heptanol, 1-heptanol] | 3.2 | 3.2 | 3.2 |  |
| CCC=O [n-propanal] | 3.5 | 3.5 | 3.5 | Intensity of umami [4]: 3.5; Intensity of saltiness [5]: 3.5; Intensity of sweetness [6]: 3.5 |
| [Cl-].[Na+] [NaCl, sodium chloride, reference compound] |  |  |  | Scores in sensory evaluation (taste intensity, saltiness) ([7]; 0.6% aqueous NaCl solution): 3.5; Scores in sensory evaluation (taste intensity, saltiness) ([7]; 0.8% aqueous NaCl solution): 4.0 |
| CCCC=O [n-butanal] | 3.5 | 3.5 | 3.5 | Intensity of umami [4]: 3.5; Intensity of saltiness [5]: 3.5; Intensity of sweetness [6]: 3.5 |
| CCCCO [Example 1-butanol, 1-butanol] | 3.2 | 3.2 | 3.2 |  |
| CCCCCCO [Example 1-hexanol, 1-hexanol] | 3.2 | 3.2 | 3.2 |  |
| CCCCCCCCCO [Example 1-nonanol, 1-nonanol] | 3.2 | 3.2 | 3.2 |  |
| CCCCCC=CC=CC=O [2,4-decadienal] | 3.5 | 3.5 | 3.5 |  |
| OC[C@H]1O[C@@](CO)(O[C@H]2O[C@H](CO)[C@@H](O)[C@H](O)[C@H]2O)[C@@H](O)[C@@H]1O [sucrose, reference compound] |  |  |  | Scores in sensory evaluation (taste intensity, sweetness) ([8]; 1.8% aqueous sucrose solution): 3.5; Scores in sensory evaluation (taste intensity, sweetness) ([8]; 2.0% aqueous sucrose solution): 4.0 |
| CCCC=CC=O [Example 2-hexenal, 2-hexenal] | 3.8 | 3.8 | 3.8 |  |
| CCCCCCCCCCC=O [n-undecanal, reference compound] | 3.0 | 3.0 | 3.0 |  |
| CCCCCCCCO [Example 1-octanol, 1-octanol] | 3.2 | 3.2 | 3.2 |  |
| C=CCCCC=CCO [2,7-octadienol] | 3.2 | 3.2 | 3.5 |  |
| CCCCCCC=O [n-heptanal] | 4.5 | 4.5 | 4.0 | Intensity of umami [4]: 4.0; Intensity of saltiness [5]: 4.0; Intensity of sweetness [6]: 4.0 |
| CCCCCCCCCC=O [n-decanal] | 3.5 | 3.5 | 3.5 | Intensity of umami [4]: 3.5; Intensity of saltiness [5]: 3.5; Intensity of sweetness [6]: 3.5 |
| C=CC(O)CCC (stereo not shown) [1-hexene-3-ol] | 3.2 | 3.2 | 3.5 |  |
| C=CC(C)O (stereo not shown) [Example 1-buten-3-ol, 1-buten-3-ol] | 3.2 | 3.2 | 3.5 |  |
| CCCCCCCCCCO [Example 1-decanol, 1-decanol] | 3.2 | 3.2 | 3.2 |  |
| CCCO [propanol, reference compound] |  |  |  | Intensity of umami, Aqueous MSG solution [9]: 3.0; Intensity of saltiness, Aqueous NaCl solution [10]: 3.0; Intensity of sweetness, Aqueous sucrose solution [11]: 3.0 |
| C=CC(O)CCCCCCC (stereo not shown) [1-decene-3-ol] | 3.2 | 3.2 | 3.5 |  |
| CCCCCCCCCCCC=O [n-dodecanal, reference compound] | 3.0 | 3.0 | 3.0 |  |
| CCO [ethanol, reference compound] | 3.0 | 3.0 | 3.0 |  |

— patent publication US20120177797A1, “TASTE ENHANCING AGENT” (J-OIL MILLS, INC., priority 2009, published 2012)
